Laboratory results from paper PMC8851282, “Senolysis induced by 25-hydroxycholesterol targets CRYAB in multiple cell types” (iScience, 2022).

Key:
[1] = system: human skeletal muscle myoblasts (HSMMs); assay: Cell viability assay (cell counting kit-8) of senescent and non-senescent HSMMs treated with inhibitors; assay type: cell-based; details: for IC50: Homo sapiens, Myoblast, HSMM
Method: Figure 3 25HC is a senolytic in multiple muscle cell types (A) Targets, compounds, and mechanisms. (B) Timeline of cell viability assay with inhibitors. Cells were pre-cultured for 24 h, treated with Doxo for 24 h, and then treated with inhibitors. Cell viability was analyzed from day 0–7. (C–E) Effects of inhibitors on viability of FAPs, SCs, and HSMMs. Cells were treated with inhibitors at the indicated concentrations. Cell viability was analyzed on day 3 (HSMMs) or 5 (FAPs and SCs). Blue and red dots indicate non-senescent (NS) and senescent (SEN), respectively. The average value at 0 μM for each group was set at 100% cell viability. p values versus NS were obtained using unpaired two-tailed Student’s t test. ∗p < 0.05, ∗∗p < 0.01, and ∗∗∗p < 0.001.
All experiments were performed in incubators at 37 °C, 3% O2 and 5% CO2. Senescence was induced by treatment with either Doxo (250 nM for 24 h) ([Demaria et al., 2017]) or X-irradiation (10 Gy) ([Limbad et al., 2020]). For cell culture studies using 25HC, it was used at the indicated concentrations in the media.
FAPs and SCs were cultured on Matrigel-coated dishes (BD Biosciences) in growth medium (GM) consisting of DMEM plus 10% FBS, 1% penicillin-streptomycin and 10% MyoCult (STEMCELL Technologies) for 7 days. Human myogenic cell HSMMs (Lonza) were maintained according to the manufacturer’s instructions with SkGM-2 medium (Lonza).
Cell viability was assessed using a cell counting kit-8 from Dojindo Molecular Technologies, Inc (Cat CK04-20). Cells were incubated with culture media + 10% kit cell viability reagent, 150 μL/well in 96-well plates for 2 h. The supernatant was transferred to a new 96-well plate and absorbance read at 450 nm as recommended in the product datasheet.

[2] = system: human liver stellate cells (hLSCs); assay: Cell viability assay of NS and Doxo- or IR-induced senescent hLSCs treated with 25HC; assay type: cell-based; details: 100 μM after 3 days; Doxo or IR induced senescence
Method: (§1) Figure 7 25HC treatment timeline and its effects on NS and SEN hCMECs, hLSCs, hRPTECs, and hACs All cell types were treated with either DMSO, 250 nM Doxo or 10-Gy IR at the times shown. 25HC treatment was started 24 h after Doxo or IR treatment. Cell viability was measured every 3–5 days for 15 days. Optimal treatment times for maximum senolysis are shown for each cell type: day 15 for hCMECs, day 3 for hLSCs, day 9 for hRPTECs and day 12 for hACs. For qRT-PCR: mean ± SE, n =4, ∗p< 0.05, ∗∗p< 0.01, ∗∗∗p<0.001, ∗∗∗∗p<0.0001 by Dunnett’s multiple comparisons test vs DMSO or NS, For cell viability assays: mean ± SE, n =3, ∗∗p< 0.01, ∗∗∗p<0.001, ∗∗∗∗p<0.0001 vs 0 mM by student’s t test.
All experiments were performed in incubators at 37 °C, 3% O2 and 5% CO2. Senescence was induced by treatment with either Doxo (250 nM for 24 h) ([Demaria et al., 2017]) or X-irradiation (10 Gy) ([Limbad et al., 2020]). […]
(§2) Cell viability was assessed using a cell counting kit-8 from Dojindo Molecular Technologies, Inc (Cat CK04-20). […] The supernatant was transferred to a new 96-well plate and absorbance read at 450 nm as recommended in the product datasheet. […]
Cells were treated with either DMSO or 250 nM Doxo for 24 h. […] Cell viability was measured every 3-–5 days until 15 days.
(b) 25HC effects on NS or IR-treated hLSCs at vari ous ti mes. […] Cell viability was measured every 3–5 days until 15 days. […]

[3] = system: human renal proximal tubule epithelial cells (hRPTECs); assay: Cell viability assay of NS and Doxo- or IR-induced senescent hRPTECs treated with 25HC; assay type: cell-based; details: 5 μM after 9 days; Doxo or IR induced senescence
Method: as §1
All experiments were performed in incubators at 37 °C, 3% O2 and 5% CO2. […]
as §2
Supplementary Fig. 12 (related to Fig. 7) | 25HC treatment of human renal epithelial cells (a) 25HC effects on DMSO- or Doxo-treated hRPTECs at various times. […] Cel l vi abi l i ty was measured every 3–5 days until 15 days. […]
Cells were NS or treated with 10-Gy X-rays. […] Cell viability was measured every 3–5 days until 15 days. […]

[4] = system: Cdkn1a mRNA and SASP factors in skeletal muscle; assay: qRT-PCR of senescence markers, Cryab and SASP factors in skeletal muscles of aged mice given 25HC; assay type: in vivo, mouse
[5] = system: gastrocnemius muscle; details: ip, 50 mg/kg, 120 h

C[C@H](CCCC(C)(C)O)[C@H]1CC[C@H]2[C@@H]3CC=C4C[C@@H](O)CC[C@]4(C)[C@H]3CC[C@]12C [25HC, 25-hydroxycholesterol]
viability of senescent versus non-senescent HSMMs ([1]; Doxo-induced senescence, viability on day 3): significantly decreased cell viability | IC50 ([1]; 72 h, 3 days in culture): 7.2 µM | IC50 ([1]; 168 h, 7 days in culture): 3.7 µM | senolysis in hLSCs [2]: induced significant senolysis | senolysis in hRPTECs [3]: induced significant senolysis | Cdkn1a mRNA induction by aging in gastrocnemius and soleus muscles ([4]; 24–26-month-old mice, both genders, 25HC 50 mg/kg i.p. for 5 days): significantly reduced | expression of SASP factors, including IL6, in skeletal muscle ([4]; mice treated with 25HC (Figures S17 and S18)): substantially inhibited | muscle mass restored (gastrocnemius wet weight normalized to body weight) [5]: ~23%
